Structures are written as SMILES. Counter-ions that a name gives are not always drawn. Like-named read-outs stand apart in the source and are kept apart here.

Experiment [1] has as its target T1, SARS-CoV-2 PLpro (nsp3 1564–1878) (Severe acute respiratory syndrome coronavirus 2, UniProt P0DTD1). Description: biochemical. Also noted: FRET-quenched peptide (Pro3) cleavage by PLpro, 10 min pre-incubation, slope over 20 min, normalised to no-compound control. The following applies: high concentration screen.
The target in experiment [2] is T1, SARS-CoV-2 PLpro (nsp3 1564–1878). Description: biochemical. As to conditions: low concentration screen. On the set-up: FRET-quenched peptide (Pro3) cleavage by PLpro, 10 min pre-incubation, slope over 20 min, normalised to no-compound control.
Where [3] appears, read: Well no.=5339, read-out: % of control remaining.
The mark [4] stands for this setting: Well no.=8291, read-out: % of control remaining.
Where [5] appears, read: Well no.=3278, read-out: % of control remaining.
The mark [6] stands for this setting: Well no.=5164, read-out: % of control remaining.
Setting [7] is: Well no.=6662, read-out: % of control remaining.
[8] abbreviates: Well no.=5062, read-out: % of control remaining.
The mark [9] stands for this setting: Well no.=6465, read-out: % of control remaining.
Where [10] appears, read: Well no.=5357, read-out: % of control remaining.
The mark [11] stands for this setting: read-out: % of control remaining, Well no.=1861.
The mark [12] stands for this setting: read-out: % of control remaining, Well no.=6467.
[13] abbreviates: Well no.=6653, read-out: % of control remaining.
[14] abbreviates: Well no.=6367, read-out: % of control remaining.
The mark [15] stands for this setting: Well no.=5319, read-out: % of control remaining.
Where [16] appears, read: Well no.=7181, read-out: % of control remaining.
Where [17] appears, read: Well no.=5139, read-out: % of control remaining.
[18] abbreviates: Well no.=8295, read-out: % of control remaining.
Setting [19] is: Well no.=447, read-out: % of control remaining.
Setting [20] is: Well no.=1976, read-out: % of control remaining.
[21] abbreviates: Well no.=592, read-out: % of control remaining.
[22] abbreviates: Well no.=6497, read-out: % of control remaining.
The mark [23] stands for this setting: Well no.=7840, read-out: % of control remaining.
Setting [24] is: Well no.=597, read-out: % of control remaining.
The mark [25] stands for this setting: Well no.=2369, read-out: % of control remaining.
Where [26] appears, read: Well no.=394, read-out: % of control remaining.
[27] abbreviates: Well no.=1804, read-out: % of control remaining.
Setting [28] is: Well no.=2096, read-out: % of control remaining.
Where [29] appears, read: Well no.=5268, read-out: % of control remaining.
Setting [30] is: Well no.=5309, read-out: % of control remaining.
[31] abbreviates: Well no.=5307, read-out: % of control remaining.
[32] abbreviates: Well no.=580, read-out: % of control remaining.
The mark [33] stands for this setting: Well no.=1978, read-out: % of control remaining.
[34] abbreviates: Well no.=5360, read-out: % of control remaining.
Where [35] appears, read: Well no.=3547, read-out: % of control remaining.
The mark [36] stands for this setting: Well no.=1868, read-out: % of control remaining.

For `CC1(C)O[C@@H]2C[C@H]3[C@@H]4CCC5=CC(=O)C=C[C@]5(C)[C@H]4[C@@H](O)C[C@]3(C)[C@]2(C(=O)CO)O1` [Desonide], the values for the remaining activity at 3.75 µM in experiment [1] (setting [3]) and in experiment [1] (setting [4]) were 84.9% and 96%, respectively. The remaining activity at 1.25 µM was 95.1% in experiment [2] (setting [3]) and 99.7% in experiment [2] (setting [4]).

In the case of `c1ccc2c(c1)CN1CCCC1=N2` [Desoxypeganine], the remaining activity at 3.75 µM in experiment [1] (setting [5]) amounted to 97.7%. Moreover, the remaining activity at 1.25 µM in experiment [2] (setting [5]) was determined as 98%.

`CN(C)CC(c1ccc(O)cc1)C1(O)CCCCC1` (centres unmarked) [Desvenlafaxine]: in experiment [1] (setting [6]), the remaining activity at 3.75 µM was found to be 96.9%. Besides, the remaining activity at 1.25 µM in experiment [2] (setting [6]) was found to be 94.5%.

For the molecule `Cc1cccc(Cc2c[nH]cn2)c1C` [Detomidine (hydrochloride)], the remaining activity at 3.75 µM in experiment [1] (setting [7]) was determined as 102%. Also, in experiment [2] (setting [7]), the remaining activity at 1.25 µM worked out at 98.9%.

Take `Cc1cccc(Cc2c[nH]cn2)c1C` [Detomidine HCl]: the remaining activity at 3.75 µM in experiment [1] (setting [8]) stood at 105%. Besides, the remaining activity at 1.25 µM in experiment [2] (setting [8]) came to 103%.

`CC(=O)OCC(=O)[C@@]1(O)[C@H](C)C[C@H]2[C@@H]3CCC4=CC(=O)C=C[C@]4(C)[C@@]3(F)[C@@H](O)C[C@@]21C` [Dexamethasone (acetate)]: the remaining activity at 3.75 µM in experiment [1] (setting [9]) came to 106%. For the same molecule, the remaining activity at 1.25 µM in experiment [2] (setting [9]) amounted to 107%.

Consider `CC(=O)OCC(=O)[C@@]1(O)[C@H](C)C[C@H]2[C@@H]3CCC4=CC(=O)C=C[C@]4(C)[C@@]3(F)[C@@H](O)C[C@@]21C` [Dexamethasone acetate], for which the remaining activity at 3.75 µM in experiment [1] (setting [10]) was 98%. Also, in experiment [2] (setting [10]), the remaining activity at 1.25 µM worked out at 99.3%.

For `C[C@@H]1C[C@H]2[C@@H]3CCC4=CC(=O)C=C[C@]4(C)[C@@]3(F)[C@@H](O)C[C@]2(C)[C@@]1(O)C(=O)CO` [Dexamethasone], the remaining activity at 3.75 µM in experiment [1] (setting [11]) was 100%; in experiment [1] (setting [12]), 98.7%. Moreover, the remaining activity at 1.25 µM in experiment [2] (setting [11]) turned out to be 99.1%; in experiment [2] (setting [12]) it was 96.6%.

For `CN(C)CC[C@@H](c1ccc(Cl)cc1)c1ccccn1` [Dexchlorpheniramine (maleate)], the remaining activity at 3.75 µM in experiment [1] (setting [13]) amounted to 101%. Further, the remaining activity at 1.25 µM in experiment [2] (setting [13]) was determined as 103%.

As for `Cc1cccc([C@H](C)c2c[nH]cn2)c1C` [Dexmedetomidine (hydrochloride)], the remaining activity at 3.75 µM in experiment [1] (setting [14]) was 103%. For the same molecule, the remaining activity at 1.25 µM in experiment [2] (setting [14]) turned out to be 102%.

In the case of `Cc1cccc([C@H](C)c2c[nH]cn2)c1C` [Dexmedetomidine], the remaining activity at 3.75 µM in experiment [1] (setting [15]) came to 95.8%. Besides, the remaining activity at 1.25 µM in experiment [2] (setting [15]) turned out to be 94.4%.

Regarding `CCCN[C@@H]1CCc2nc(N)sc2C1` [Dexpramipexole (dihydrochloride)], the remaining activity at 3.75 µM in experiment [1] (setting [16]) came to 93.6%. In experiment [2] (setting [16]), the remaining activity at 1.25 µM is 98.2%.

With `C[C@@H](CN1CC(=O)NC(=O)C1)N1CC(=O)NC(=O)C1` [Dexrazoxane HCl], the remaining activity at 3.75 µM in experiment [1] (setting [17]) was 104%. In addition, the remaining activity at 1.25 µM in experiment [2] (setting [17]) turned out to be 101%.

For the molecule `COc1ccc2c(c1)[C@]13CCCC[C@@H]1[C@H](C2)N(C)CC3` [Dextromethorphan (hydrobromide hydrate)], in experiment [1] (setting [18]), the remaining activity at 3.75 µM worked out at 96.5%. Further, the remaining activity at 1.25 µM in experiment [2] (setting [18]) is 101%.

`COc1ccc2c(c1)[C@]13CCCC[C@@H]1[C@H](C2)N(C)CC3` [Dextromethorphan hydrobromide monohydrate]: the remaining activity at 3.75 µM in experiment [1] (setting [19]) came to 104%. Also, in experiment [2] (setting [19]), the remaining activity at 1.25 µM is 100%.

In the case of `COc1ccc2c(c1)[C@]13CCCC[C@@H]1[C@H](C2)N(C)CC3` [Dextromethorphan], the remaining activity at 3.75 µM in experiment [1] (setting [20]) amounted to 101%. Moreover, the remaining activity at 1.25 µM in experiment [2] (setting [20]) is 98.8%.

In the case of `CN1CC[C@@]23CCCC[C@@H]2[C@@H]1Cc1ccc(O)cc13` [Dextrorphan D-tartrate], the remaining activity at 3.75 µM in experiment [1] (setting [21]) stood at 103%. The remaining activity at 1.25 µM in experiment [2] (setting [21]) is 101%.

As to `OC[C@H]1OC(O)[C@H](O)[C@@H](O)[C@@H]1O` (some centres unmarked) [Dextrose], the remaining activity at 3.75 µM in experiment [1] (setting [22]) was 99.3%. In experiment [2] (setting [22]), the remaining activity at 1.25 µM amounted to 97.3%.

Take `CC(=O)N(C(C)=O)c1ccc(N=Nc2ccccc2C)cc1C` [Diacetazotol]: in experiment [1] (setting [23]), the remaining activity at 3.75 µM worked out at 97.2%. In addition, in experiment [2] (setting [23]), the remaining activity at 1.25 µM stood at 98.8%.

Consider `O=c1c2ccccc2[nH]c(=S)n1CCN1CCC(=C(c2ccc(F)cc2)c2ccc(F)cc2)CC1` [Diacylglycerol Kinase Inhibitor II], for which the remaining activity at 3.75 µM was found to be 95.5% in experiment [1] (setting [24]) and 99.1% in experiment [1] (setting [25]). Besides, the remaining activity at 1.25 µM in experiment [2] (setting [24]) was 93.5%; in experiment [2] (setting [25]) it was 98.2%.

For `CC1=Nc2ccc(Cl)cc2S(=O)(=O)N1` [Diazoxide], the remaining activity at 3.75 µM in experiment [1] (setting [26]) was 101%; in experiment [1] (setting [27]), 93.4%. The remaining activity at 1.25 µM in experiment [2] (setting [26]) was 105%; in experiment [2] (setting [27]), 92.9%.

`CN(C)CCN1C(=O)c2ccccc2N(C)c2ccccc21` [Dibenzepine]: in experiment [1] (setting [28]), the remaining activity at 3.75 µM came out at 99.6%. In experiment [2] (setting [28]), the remaining activity at 1.25 µM amounted to 97%.

As for `N#CC(c1ccc(Cl)cc1)c1c(Cl)cc(-n2ncc(=O)[nH]c2=O)cc1Cl` (centres unmarked) [Diclazuril], the remaining activity at 3.75 µM in experiment [1] (setting [29]) was determined as 96.8%. Besides, the remaining activity at 1.25 µM in experiment [2] (setting [29]) is 91.9%.

For the molecule `O=C(O)Cc1ccccc1Nc1c(Cl)cccc1Cl` [Diclofenac Diethylamine], the remaining activity at 3.75 µM in experiment [1] (setting [30]) worked out at 98.6%. Besides, the remaining activity at 1.25 µM in experiment [2] (setting [30]) was 103%.

In the case of `O=C(O)Cc1ccccc1Nc1c(Cl)cccc1Cl` [Diclofenac Potassium], the remaining activity at 3.75 µM in experiment [1] (setting [31]) is 100%. Also, the remaining activity at 1.25 µM in experiment [2] (setting [31]) was 101%.

With `O=C(O)Cc1ccccc1Nc1c(Cl)cccc1Cl` [Diclofenac sodium], in experiment [1] (setting [32]), the remaining activity at 3.75 µM was 96.6%. For the same molecule, the remaining activity at 1.25 µM in experiment [2] (setting [32]) is 94%.

Turning to `O=C(O)Cc1ccccc1Nc1c(Cl)cccc1Cl` [Diclofenac], the remaining activity at 3.75 µM in experiment [1] (setting [33]) worked out at 102%. Moreover, the remaining activity at 1.25 µM in experiment [2] (setting [33]) worked out at 102%.

Regarding `Cc1onc(-c2c(Cl)cccc2Cl)c1C(=O)N[C@@H]1C(=O)N2[C@@H]1SC(C)(C)[C@@H]2C(=O)O` [Dicloxacillin Sodium], the remaining activity at 3.75 µM in experiment [1] (setting [34]) came to 89.6%. Further, the remaining activity at 1.25 µM in experiment [2] (setting [34]) was determined as 90.3%.

As for `O=c1oc2ccccc2c(O)c1Cc1c(O)c2ccccc2oc1=O` [Dicoumarol], the remaining activity at 3.75 µM in experiment [1] (setting [35]) stood at 105%. For the same molecule, the remaining activity at 1.25 µM in experiment [2] (setting [35]) was 104%.

Turning to `O=c1[nH]cnc2c1ncn2[C@H]1CC[C@@H](CO)O1` [Didanosine], the remaining activity at 3.75 µM in experiment [1] (setting [36]) came to 104%. Besides, the remaining activity at 1.25 µM in experiment [2] (setting [36]) was found to be 97.7%.
